{
  "source": "patent US20220323471A1",
  "about": "(priority 2019, published 2022)",
  "key": {"[1]": {"test_system": "endosomes and lysosomes of HT1080 cells", "assay": "Acridine Orange fluorescence, endosomal/lysosomal acidification", "assay_type": "cell-based, human", "settings": "4 hours pre-incubation, DGP, diphyllin, 6DG 2, 1 or 0.1 μM, Bafilomycin 100 nM, NH4Cl 25 mM", "procedure": "To determine whether DGP inhibited ZIKV infection by preventing the acidification of endosomes and lysosomes, Acridine Orange (AO) was used, a cell-permeable fluorescent dye marker that accumulates in low pH compartments such as endosomes and lysosomes.\nHT1080 cells were pre-incubated for 4 hours with the Bafilomycin (FIG. 10A, 100 nM), NH4Cl (FIG. 10A, 25 mM), DGP (FIG. 10B: 2 μM, 1 μM, or 0.1 μM) diphyllin (FIG. 10C: 2 μM, 1 μM, or 0.1 μM), or 6DG (FIG. 10C: 2 μM, 1 μM, or 0.1 μM) to test whether DGP prevents endosomal/lysosomal acidification. After staining the cells with 1 μg/mL of AO, changes in fluorescence were measured using a Celesta flow cytometer on the PerCP-Cy5-5-A channel. A shift in the AO fluorescence is indicated with an arrow in FIGS. 10A-10D.\nAcridine Orange (Invitrogen) staining was performed as described previously (Kanzawa, T. et al. 2004, “Role of autophagy in temozolomide-induced cytotoxicity for malignant glioma cells.” Cell Death Differ 11(4): 448-457). Cells were stained with 1 μg/mL AO in 10% FBS DMEM for 30 min at 37° C. and then collected by trypsinization. Changes in fluorescence were measured using a Celesta flow cytometer in the PerCP-Cy5-5-A channel."}, "DENV1-RVP": {"test_system": "DENV1-RVP", "assay_type": "cell-based, dengue virus", "settings": "VERO cells; DGP 1 μM; NH4Cl 20 mM"}, "TBEV-RVP": {"test_system": "TBEV-RVP", "assay_type": "cell-based, tick-borne encephalitis virus"}, "WNV-RVP": {"test_system": "WNV-RVP", "assay_type": "cell-based, West Nile virus", "settings": "VERO cells; DGP 1 μM; NH4Cl 20 mM"}, "JEV-RVP": {"test_system": "JEV-RVP", "assay_type": "cell-based, Japanese encephalitis virus", "settings": "VERO cells; DGP 1 μM; NH4Cl 20 mM"}, "EBV RVP": {"test_system": "EBV RVP", "assay_type": "cell-based, Ebola virus"}, "Sendai Virus (SeV)": {"test_system": "Sendai Virus (SeV)", "assay": "Sendai Virus infection and IFN-β production in CHME3 cells", "assay_type": "cell-based", "settings": "SeV MOI 1 and 10, DGP 1 μM, NH4Cl 20 mM", "procedure": "The Flaviviridae family of viruses encode a glycoprotein that is necessary to achieve fusion at the endosomal/lysosomal membranes, the step that releases viral components into the cytoplasm. […] Instead, SeV fuses at the plasma membrane. To this end, IFN-β production and viral infection were measured in CHME3 cells infected with SeV at an MOI 1 and 10 in the presence of DGP (1 μM) or 20 mM NH4Cl.\nTo detect viral copies of ZIKV and Sendai Virus (SeV) by qRT-PCR, cells were seeded in 24-well plates, with or without DGP treatment, and infected with the virus at the indicated MOI for 48 h. After the incubation period, total RNA from HT1080, VERO, and CHME3 cells was isolated and purified using Trizol (Invitrogen). For detection of ZIKV viral load in brain and spleen, 3 mice were sacrificed at 6 days post-infection and total RNA was extracted from the brain and spleen. For cDNA synthesis, 1 ng of total RNA was reverse transcribed. The reaction mixture included 1 mM of deoxyribonucleotide phosphates (dNTPs), 2 nM of the specific reverse primer of ZIKV or SeV, 1× M-MULV buffer, 10 U M-MuLV RT (BioLabs), and 2 U of RNase Inhibitor. The reaction mixture was incubated for 1 hour at 42° C. followed by 20 min at 65° C. to inactivate the enzyme. For actin detection, Oligo-dT was used to reverse transcribe total RNA.\nZIKV RNA levels were measured using real-time PCR. HT1080 and VERO cells were challenged by ZIKV MR766 at an MOI of 1 in the presence of DGP. At 48 hours post-challenge, cells were lysed and total RNA was extracted using trizol. Total RNA was used to determine the levels of ZIKV RNA by real-time PCR using specific primers against ZIKA. qRT-PCR was carried out using SYBR green in a 20-μl final volume using a MASTERCYCLER proS machine. The primers used to detect ZIKV were: SEQ ID NO. 1: 5′-TT […]-3′-Forward (Genome Position 941-964) and SEQ ID NO. 2: 5′-[…]-3′-Reverse (Genome position 1123-1103) (AY632535.2). For the detection of SeV, the following primers were used: SEQ ID NO. 3: 5′-[…]-3′-Forward (Genome position 210-233) and SEQ ID NO. 4: 5′-[…]-3′-Reverse (Genome position 332-307) (M30202. Genome position 210-332) (Wagner, A. M. et al. 2003, “Detection of sendai virus and pneumonia virus of mice by use of fluorogenic nuclease reverse transcriptase polymerase chain reaction analysis.” Comp Med 53(2): 173-177). For the detection of IFN-β the following primers were used: SEQ ID NO. 5: Forward 5-[…]-3′ (Genome position 644-668) and SEQ ID Na 6: Reverse 5′-[…]-3′ (Genome position 718-697) (NM_002176.2) and for actin detection: SEQ ID NO. 7: 5′-[…]-′3-Forward and SEQ ID NO. 8: 5′-[…]′3-Reverse. ZIKA viral RNA levels were normalized to actin (upper panels). […]"}, "ZIKV strain MR766": {"test_system": "ZIKV strain MR766", "assay": "ZIKV strain MR766 infection, 4G2 antibody flow cytometry", "settings": "for pIC50: Zika virus"}, "ZIKV": {"test_system": "ZIKV", "settings": "cited from earlier work"}, "[2]": {"test_system": "HT1080, CHME3, VERO cells", "assay": "MTT cell viability assay", "assay_type": "cell-based, human and monkey", "settings": "human or monkey cells (HT1080, CHME3, VERO); 48 hours", "procedure": "Cell viability was determined by measuring the reduction of the tetrazolium dye MTT [3-(4,5-dimethylthiazol-2-yl)-2,5-diphenyltetrazolium bromide] to its insoluble form formazan. We treated 4×10^3 cells/well in a 96-well plate with serial dilutions of the indicated drugs. Human and monkey cells were incubated with DGP, diphyllin, or 6-deoxy-D-glucose for 48 hours at 37° C. After the incubation period, 10 μl MTT solution (5 mg/mL) was added to each well for an additional 4 hours at 37° C. Finally, the media was removed and dimethyl sulfoxide was added (200 μl/well) according to the manufacturer's instructions. The optical density was measured at 570 nm using a microplate reader. Experiments were performed in triplicates and standard deviations are shown. Mock-treated cells represent 100% viability."}},
  "note": "pIC50: −log10 of the molar value. Where two headings read alike, the source gives them in different places.",
  "data": [
    {"smiles": "C[C@@H](O)[C@@H](O)[C@H](O)[C@@H](O)C=O", "note": "[Formula 6DG, 6-deoxyglucose, reference compound]", "values": [
      {"measurement": "acidification of endosomes and lysosomes (AO fluorescence)", "setting": "[1]", "result": "did not prevent"}
    ]},
    {"smiles": "Cl.N", "note": "[NH4Cl, ammonium chloride, reference compound]", "values": [
      {"measurement": "DENV1 RVP infection", "setting": "DENV1-RVP", "result": "inhibited infection"},
      {"measurement": "TBEV RVP infection", "setting": "TBEV-RVP", "result": "inhibited infection"},
      {"measurement": "WNV RVP infection", "setting": "WNV-RVP", "result": "inhibited infection"},
      {"measurement": "JEV RVP infection", "setting": "JEV-RVP", "result": "inhibited infection"},
      {"measurement": "EBV RVP infection", "setting": "EBV RVP", "result": "inhibited infection"},
      {"measurement": "IFN-β production in SeV-infected cells", "setting": "Sendai Virus (SeV)", "result": "increased induction"},
      {"measurement": "SeV infection / viral replication", "setting": "Sendai Virus (SeV)", "result": "increased viral replication"},
      {"measurement": "acidification of endosomes and lysosomes (AO fluorescence)", "setting": "[1]", "result": "prevent endosomal and lysosomal acidification"},
      {"measurement": "percentage of 4G2-positive cells", "setting": "ZIKV strain MR766; CHME3 cells, MOI 1, DGP 0.1 and 1 μM, NH4Cl 20 mM, 48 hours", "result": "substantial decrease"}
    ]},
    {"smiles": "CCN(CC)CCCC(C)Nc1ccnc2cc(Cl)ccc12", "note": "(stereo not shown) [chloroquine]", "values": [
      {"measurement": "required inhibitory concentrations for ZIKV in cell culture", "setting": "ZIKV", "result": "micromolar range"}
    ]},
    {"smiles": "COc1cc2c(O)c3c(c(-c4ccc5c(c4)OCO5)c2cc1OC)C(=O)OC3", "note": "[diphyllin, Diphyllin]", "values": [
      {"measurement": "toxicity at concentrations required to inhibit ZIKV infection (MTT)", "setting": "[2]", "result": "not toxic"},
      {"measurement": "acidification of endosomes and lysosomes (AO fluorescence)", "setting": "[1]", "result": "prevented the acidification of endosomes and lysosomes but to a lesser extent"},
      {"measurement": "pIC50", "setting": "ZIKV strain MR766; HT-1080, read-out: IC50, ZIKV infection", "result": 7.22},
      {"measurement": "pIC50", "setting": "ZIKV strain MR766; read-out: IC50, ZIKV infection", "result": 6.68}
    ]},
    {"smiles": "CCN(CCO)CCCC(C)Nc1ccnc2cc(Cl)ccc12", "note": "(stereo not shown) [hydroxychloroquine]", "values": [
      {"measurement": "required inhibitory concentrations for ZIKV in cell culture", "setting": "ZIKV", "result": "micromolar range"}
    ]}
  ]
}
